The results in this text go back to publication PMC6010046, “Evaluation of polyphenols from Broussonetia papyrifera as coronavirus protease inhibitors” (Journal of Enzyme Inhibition and Medicinal Chemistry, 2017).

Usually IC50 stands for the midpoint of a concentration-inhibition curve. One may read the Kd as the equilibrium constant for the complex coming apart. A high value points to weaker binding. A word on the melting point: it is the temperature, or range, at which the solid turns liquid.

In one data set the target is MERS-CoV PL^pro (Middle East respiratory syndrome-related coronavirus, UniProt K9N7C7). Nature of the data set: biochemical.
Sequence of MERS-CoV PL^pro (K9N7C7 1436-1803 limits assumed): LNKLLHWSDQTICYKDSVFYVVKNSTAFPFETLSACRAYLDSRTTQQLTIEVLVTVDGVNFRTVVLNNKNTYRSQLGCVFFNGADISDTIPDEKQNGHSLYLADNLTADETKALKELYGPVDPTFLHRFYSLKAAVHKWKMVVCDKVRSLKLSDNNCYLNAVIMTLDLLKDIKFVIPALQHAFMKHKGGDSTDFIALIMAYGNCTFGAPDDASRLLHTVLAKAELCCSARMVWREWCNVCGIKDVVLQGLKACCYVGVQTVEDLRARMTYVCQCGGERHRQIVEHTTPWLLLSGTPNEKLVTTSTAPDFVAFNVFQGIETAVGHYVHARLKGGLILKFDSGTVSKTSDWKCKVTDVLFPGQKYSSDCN
Data set [1] addresses T1, SARS-CoV PL^pro (Severe acute respiratory syndrome coronavirus, UniProt P0C6X7). Format: biochemical.
A further data set concerns the target MERS-CoV 3CL^pro (Middle East respiratory syndrome-related coronavirus, UniProt K9N7C7). Nature of the data set: biochemical.
Another data set concerns the target SARS-CoV 3CL^pro (Severe acute respiratory syndrome coronavirus, UniProt P0C6X7). Nature of the data set: biochemical.
Data set [2] has as its target T1, SARS-CoV PL^pro. Nature of the data set: biochemical. The class given is binding. Particulars: for kon: read-out: association rate constant ka; for koff: read-out: dissociation rate constant kd.

Entries after “also recorded” stand apart in the source; their conditions may differ. Read-outs that look alike come from different tables or passages of the source.

Sequence of MERS-CoV 3CL^pro (K9N7C7 3247-3553 limits assumed): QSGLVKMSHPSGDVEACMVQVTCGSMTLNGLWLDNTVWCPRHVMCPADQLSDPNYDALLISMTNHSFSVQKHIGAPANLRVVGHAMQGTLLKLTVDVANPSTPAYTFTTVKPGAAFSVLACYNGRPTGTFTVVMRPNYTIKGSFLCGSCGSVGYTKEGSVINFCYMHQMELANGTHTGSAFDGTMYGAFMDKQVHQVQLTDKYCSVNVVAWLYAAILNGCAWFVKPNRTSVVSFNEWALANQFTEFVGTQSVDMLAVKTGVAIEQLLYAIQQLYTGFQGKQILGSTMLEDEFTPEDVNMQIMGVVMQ

Take `O=c1c(O[C@@H]2O[C@H](CO)[C@H](O)[C@H](O)[C@H]2O)c(-c2ccc(O)c(O)c2)oc2cc(O)cc(O)c12` [Quercetin-β-galactoside, quercetin-β-galactoside, reference compound]: the IC50 at MERS-CoV PL^pro (pH 5.5, read-out: MERS-CoV PL^pro, IC50) stood at 129 ± 14.5 µM; on MERS-CoV 3CL^pro (pH 6, read-out: MERS-CoV 3CL^pro, IC50) it was 68 ± 2.4 µM. For the same compound, the “SARS-CoV PL^pro, LRLRGG-AMC, Inhibition type” value on SARS-CoV PL^pro [1] was “Noncompetitive (56.1 ± 2.5)”.
In the case of `O=c1c(O)c(-c2ccc(O)cc2)oc2cc(O)cc(O)c12` [Kaempferol, kaempferol, reference compound], the IC50 at MERS-CoV PL^pro worked out at 206.6 ± 1.7 µM; at SARS-CoV 3CL^pro, 116 ± 7.1 µM; on MERS-CoV 3CL^pro it was 35.3 ± 5.3 µM. Moreover, on SARS-CoV PL^pro [1], the “SARS-CoV PL^pro, LRLRGG-AMC, Inhibition type” value was “Noncompetitive (13.7 ± 0.8)”.
As to `CC(C)=CCc1c([C@@H]2CCc3ccc(O)cc3O2)cc2c(c1O)OC(C)(C)C=C2` [Compound 7, kazinol B], the IC50 against MERS-CoV PL^pro worked out at 94.9 ± 13.1 µM; on SARS-CoV 3CL^pro it was 233 ± 6.7 µM. Also, the “SARS-CoV PL^pro, LRLRGG-AMC, Inhibition type” value at SARS-CoV PL^pro [1] is “Noncompetitive (36.7 ± 2.7)”.
Take `CC(C)=CCc1cc(C(=O)/C=C/c2ccc(O)c(O)c2)c(O)cc1O` [Compound 2, broussochalcone A]: at SARS-CoV PL^pro [2], the dissociation constant (Kd) came out at 130 µM, the kon worked out at 29.9 M⁻¹ s⁻¹ and the koff is 0.00388 s⁻¹. At MERS-CoV PL^pro, 42.1 ± 5 µM corresponded to half-maximal inhibition (IC50). Moreover, the concentration for half-maximal inhibition (IC50) against SARS-CoV 3CL^pro was found to be 88.1 ± 13 µM. Moreover, the “SARS-CoV PL^pro, LRLRGG-AMC, Inhibition type” value at SARS-CoV PL^pro [1] was “noncompetitive inhibition; also recorded: Noncompetitive (8.0 ± 0.4)”. On MERS-CoV 3CL^pro, the IC50 was determined as 36.2 ± 0.4 µM.
For the compound `CC(C)=CCc1cc(C2CCc3ccc(O)cc3O2)cc(O)c1O` (stereo not drawn) [Compound 5, 3′-(3-methylbut-2-enyl)-3′,4′,7-trihydroxyflavane], the figures for the half-maximal inhibitory concentration (IC50) on MERS-CoV PL^pro, on SARS-CoV 3CL^pro and on MERS-CoV 3CL^pro were 48.8 ± 6.6 µM, 30.2 ± 6.8 µM and 34.7 ± 2 µM, respectively. Besides, the “SARS-CoV PL^pro, LRLRGG-AMC, Inhibition type” value at SARS-CoV PL^pro [1] was “Noncompetitive (15.9 ± 0.8)”.
Consider `O=C(/C=C/c1ccc(O)cc1)c1ccc(O)cc1O` [Isoliquiritigenin, isoliquiritigenin, reference compound], for which the IC50 on SARS-CoV 3CL^pro was determined as 61.9 ± 11 µM. Also, the “SARS-CoV PL^pro, LRLRGG-AMC, Inhibition type” value on SARS-CoV PL^pro [1] is listed as “Noncompetitive (23.0 ± 0.9)”.
For `CC(C)=CCc1c([C@@H]2CCc3ccc(O)cc3O2)cc2c(c1O)OC(C)(C)C(O)C2O` (stereo partly drawn) [Compound 8, broussoflavan A], the melting point lay within 238 to 240 °C. At MERS-CoV PL^pro, half-maximal inhibition (IC50) required 49.1 ± 7.5 µM. On SARS-CoV 3CL^pro, this compound returned an IC50 of 92.4 ± 2.1 µM. On SARS-CoV PL^pro [1], the “SARS-CoV PL^pro, LRLRGG-AMC, Inhibition type” value was “Noncompetitive (23.4 ± 1.6)”. Also, the midpoint of inhibition at MERS-CoV 3CL^pro, the IC50, lay at 126 ± 17.4 µM.
For the compound `CC(C)=CCc1cc(C(=O)/C=C/c2ccc(O)cc2)c(O)cc1O` [Compound 1, broussochalcone B], on SARS-CoV PL^pro [2], the Kd came to 74 µM, the kon amounted to 56 M⁻¹ s⁻¹ and the koff amounted to 0.00412 s⁻¹. Moreover, half-maximal inhibition at MERS-CoV PL^pro (IC50) was put at 113 ± 10.1 µM. The compound also gave a 50% inhibitory concentration (IC50) against SARS-CoV 3CL^pro of 57.8 ± 0.5 µM. The “SARS-CoV PL^pro, LRLRGG-AMC, Inhibition type” value at SARS-CoV PL^pro [1] is listed as “Noncompetitive (6.6 ± 0.5)”. On MERS-CoV 3CL^pro, half-maximal inhibition (IC50) was put at 27.9 ± 1.2 µM.
`CC(C)=CCc1c(CCCc2ccc(O)cc2O)cc(O)c(O)c1CC=C(C)C` [Compound 9, kazinol F]: the values for the half-inhibitory concentration (IC50) against MERS-CoV PL^pro, at SARS-CoV 3CL^pro and on MERS-CoV 3CL^pro were 39.5 ± 5.1 µM, 43.3 ± 10.4 µM and 135 ± 5.1 µM, respectively. In addition, on SARS-CoV PL^pro [1], the “SARS-CoV PL^pro, LRLRGG-AMC, Inhibition type” value is “Noncompetitive (12.1 ± 0.7)”.
As to `COc1cc(O)ccc1CCCc1cc(O)c(O)c(CC=C(C)C)c1CC=C(C)C` [Compound 10, kazinol J], on SARS-CoV PL^pro [2], the Kd amounted to 804 µM, the kon was determined as 7.3 M⁻¹ s⁻¹ and the koff is 0.00591 s⁻¹. Moreover, on MERS-CoV PL^pro, half-maximal inhibition (IC50) required 55 ± 1.3 µM. This compound displayed an IC50 at SARS-CoV 3CL^pro of 64.2 ± 1.7 µM. Moreover, the “SARS-CoV PL^pro, LRLRGG-AMC, Inhibition type” value at SARS-CoV PL^pro [1] is “Noncompetitive (10.7 ± 0.9)”. In addition, the IC50 on MERS-CoV 3CL^pro stood at 109 ± 3.7 µM.
Turning to `CC(C)=CCc1cc([C@@H]2CCc3ccc(O)cc3O2)c(CC=C(C)C)c(O)c1O` [Compound 6, kazinol A], the half-inhibitory concentration (IC50) is 88.5 ± 3.9 µM against MERS-CoV PL^pro and 84.8 ± 10.4 µM against SARS-CoV 3CL^pro. In addition, the “SARS-CoV PL^pro, LRLRGG-AMC, Inhibition type” value at SARS-CoV PL^pro [1] was “Noncompetitive (40.5 ± 3.4)”.
Turning to `CC1(C)C=Cc2cc(C(=O)/C=C/c3ccc(O)cc3)c(O)cc2O1` [Compound 3, 4-hydroxyisolonchocarpin], the 50% inhibitory concentration (IC50) at MERS-CoV PL^pro worked out at 172 ± 10.2 µM; on SARS-CoV 3CL^pro it was 203 ± 3.9 µM; against MERS-CoV 3CL^pro, 194 ± 15.6 µM. Moreover, the “SARS-CoV PL^pro, LRLRGG-AMC, Inhibition type” value on SARS-CoV PL^pro [1] is “Noncompetitive (27.7 ± 1.7)”.
As for `CC(C)=CCc1cc(-c2oc3cc(O)c(CC=C(C)C)c(O)c3c(=O)c2O)cc(O)c1O` [Compound 4, papyriflavonol A], the melting point was 202 to 204 °C. Besides, on SARS-CoV PL^pro [2], the Kd came to 212 µM, the kon amounted to 21 M⁻¹ s⁻¹ and the koff worked out at 0.00445 s⁻¹. The compound further returned an IC50 against MERS-CoV PL^pro of 113 ± 7.3 µM. On SARS-CoV 3CL^pro, the IC50 was 104 ± 17.4 µM. Also, at SARS-CoV PL^pro [1], the “SARS-CoV PL^pro, LRLRGG-AMC, Inhibition type” value is “noncompetitive inhibition; also recorded: Noncompetitive (5.9 ± 0.4)”. This compound came in with a concentration for half-maximal inhibition (IC50) against MERS-CoV 3CL^pro of 64.5 ± 4.9 µM.
Consider `O=c1c(O)c(-c2ccc(O)c(O)c2)oc2cc(O)cc(O)c12` [Quercetin, quercetin, reference compound], for which the “SARS-CoV PL^pro, LRLRGG-AMC, Inhibition type” value at SARS-CoV PL^pro [1] is “Noncompetitive (7.0 ± 0.7)”. In addition, the IC50 at MERS-CoV 3CL^pro worked out at 34.8 ± 1.2 µM.
